# Measurements as given in paper PMC3351391, “Inhibition Mechanism and Model of an Angiotensin I-Converting Enzyme (ACE)-Inhibitory Hexapeptide from Yeast (Saccharomyces cerevisiae)” (PLoS ONE, 2012).
# “Also recorded” adds a separate entry of the source. No end group written: not given here.
# How the values were obtained:
# [1] = tested on: ACE; settings: cited from earlier work; for mode of ACE inhibition (literature): compete with the substrate for binding to the active site
# Protocol: In this study, we investigated the inhibition mechanism of the hexapeptide on the basis of its sequence to provide a reference for the design of drugs that target such enzymes as ACE. || To determine the inhibitory mechanism, Lineweaver-Burk plots were determined for the ACE-inhibitory peptide from yeast (TPTQQS). […] Thus, the peptide can combine with the ACE molecule to produce a dead-end complex, regardless of whether a substrate molecule is bound or not. The complex between ACE and TPTQQS can prevent the formation of the reaction product, HA. […] However, the amino acid sequence of this peptide is not in accordance with the results of structure-activity correlation studies on ACE-inhibitory peptides. […] In the present study, we demonstr ...
# [2] = tested on: ACE; assay: Inhibition kinetics of ACE (Lineweaver-Burk plots, HHL substrate); assay type: biochemical; settings: 100 and 200 µg/mL inhibitor; HHL 0.78, 1.55, 3.10 mM; Na-borate pH 8.3; 37°C
# Protocol: The determination of ACE-inhibitory activity was performed using a High Performance Liquid Chromatography (HPLC) method, modified from a spectrophotometric method. HHL (Sigma, USA) was dissolved in 0.1 mol/L Na-borate buffer (pH 8.3) containing 1.55 mmol/L NaCl. ACE (Sigma, USA) was dissolved in the same buffer at a concentration of 0.2 U/mL. A mixture containing 10 µL of inhibitor and 5 µL of ACE solution was incubated at 37°C for 5 min, 50 µL of HHL solution was added, and the solution was incubated for 1 h. The reaction was stopped by adding 100 µL of 0.1% trifluoroacetic acid (TFA) (Sigma, USA). The amount of hippuric acid (HA) yielded by ACE catalysis was measured by RP-HPLC (GX-281, Gilson, France) with an octadecylsilyl (ODS) column (4.6 mm×250 mm, 5 µm, Agilent, USA). […] The effluent was monitored at 228 nm. The ACE-inhibitory activity was calculated using Equation (1) as follows: [drawing 1] […]
# Inhibition kinetics of TPTQQS- Various substrate (HHL) concentrations (0.78 mM, 1.55 mM, and 3.10 mM) were incubated with the ACE solution in the presence or absence of 100 µg/mL, of 200 µg/mL TPTQQS at 37°C. The ACE-inhibitory activity was determined as described as described in the “Assay of ACE-inhibitory activity". The kinetics of ACE in the presence of the inhibitory peptide was determined using Lineweaver-Burk plots.
# [3] = tested on: ACE; assay: Assay of ACE-inhibitory activity (HPLC, hippuric acid from HHL); assay type: biochemical; settings: peptide 0.25 mmol/L (Fig. 4); HHL substrate, 0.1 mol/L Na-borate buffer pH 8.3; 5 min pre-incubation, 1 h at 37°C; RP-HPLC of HA at 228 nm
# Protocol: The determination of ACE-inhibitory activity was performed using a High Performance Liquid Chromatography (HPLC) method, modified from a spectrophotometric method. HHL (Sigma, USA) was dissolved in 0.1 mol/L Na-borate buffer (pH 8.3) containing 1.55 mmol/L NaCl. ACE (Sigma, USA) was dissolved in the same buffer at a concentration of 0.2 U/mL. A mixture containing 10 µL of inhibitor and 5 µL of ACE solution was incubated at 37°C for 5 min, 50 µL of HHL solution was added, and the solution was incubated for 1 h. The reaction was stopped by adding 100 µL of 0.1% trifluoroacetic acid (TFA) (Sigma, USA). The amount of hippuric acid (HA) yielded by ACE catalysis was measured by RP-HPLC (GX-281, Gilson, France) with an octadecylsilyl (ODS) column (4.6 mm×250 mm, 5 µm, Agilent, USA). The mobile phase was 60% methanol (V/V) containing 0.1% TFA at a flow rate of 0.8 mL/min. The effluent was monitored at 228 nm. The ACE-inhibitory activity was calculated using Equation (1) as follows: [drawing 1] (1) where A is the content of HA generated in the presence of an ACE inhibitor, B is the content of HA generated without an ACE inhibitor, and C is the content of HA generated without ACE.
# [4] = target: T1, ACE (Oryctolagus cuniculus, UniProt P12822); assay: ITC titration of HHL into ACE in presence of inhibitor; assay type: binding; settings: 0.024 µmol/L ACE and 0.13 µmol/L TPTQQS titrated with 1.55 mmol/L HHL; 37°C; pH 8.3
# T1 construct: purchased Sigma, USA
# T1 sequence (P12822 34-1310): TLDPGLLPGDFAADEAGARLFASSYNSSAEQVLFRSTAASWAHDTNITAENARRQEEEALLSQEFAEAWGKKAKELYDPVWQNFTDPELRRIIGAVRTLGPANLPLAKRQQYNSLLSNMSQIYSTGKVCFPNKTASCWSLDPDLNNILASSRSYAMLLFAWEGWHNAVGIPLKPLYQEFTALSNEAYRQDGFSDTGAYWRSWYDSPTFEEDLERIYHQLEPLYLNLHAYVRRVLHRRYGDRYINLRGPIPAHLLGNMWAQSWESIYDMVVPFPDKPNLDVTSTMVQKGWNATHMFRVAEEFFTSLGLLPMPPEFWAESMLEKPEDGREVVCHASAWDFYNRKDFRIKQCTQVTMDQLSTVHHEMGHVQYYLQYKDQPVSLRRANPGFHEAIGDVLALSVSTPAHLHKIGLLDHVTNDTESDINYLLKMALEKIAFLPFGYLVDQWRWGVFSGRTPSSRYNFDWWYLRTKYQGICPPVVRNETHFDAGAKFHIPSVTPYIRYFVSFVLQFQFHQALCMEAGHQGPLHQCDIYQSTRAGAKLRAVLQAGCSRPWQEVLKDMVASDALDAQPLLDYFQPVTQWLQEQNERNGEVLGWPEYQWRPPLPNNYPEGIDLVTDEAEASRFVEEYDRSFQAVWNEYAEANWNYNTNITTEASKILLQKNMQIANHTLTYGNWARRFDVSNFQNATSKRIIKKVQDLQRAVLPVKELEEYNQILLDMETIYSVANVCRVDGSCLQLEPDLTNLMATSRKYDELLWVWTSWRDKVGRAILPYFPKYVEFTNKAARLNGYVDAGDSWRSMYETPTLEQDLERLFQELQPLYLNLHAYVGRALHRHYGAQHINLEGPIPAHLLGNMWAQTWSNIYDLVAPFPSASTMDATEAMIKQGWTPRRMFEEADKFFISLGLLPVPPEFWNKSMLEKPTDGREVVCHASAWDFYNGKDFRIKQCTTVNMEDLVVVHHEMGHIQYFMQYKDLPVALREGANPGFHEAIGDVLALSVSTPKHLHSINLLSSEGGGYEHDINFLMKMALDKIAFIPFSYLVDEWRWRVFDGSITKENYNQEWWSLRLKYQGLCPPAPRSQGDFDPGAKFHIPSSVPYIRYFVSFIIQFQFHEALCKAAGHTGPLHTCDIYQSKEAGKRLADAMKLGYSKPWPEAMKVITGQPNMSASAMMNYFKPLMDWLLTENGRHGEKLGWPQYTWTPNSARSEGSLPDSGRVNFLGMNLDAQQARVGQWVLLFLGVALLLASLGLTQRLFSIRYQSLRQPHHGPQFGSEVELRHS
# Protocol: The isothermal titration calorimetry (ITC) experiments were carried out using a Nano ITC Low Volume System (TA Instruments-Waters LLC., USA) with a 190 µL cell. All of the experiments were performed at 37°C. ACE was prepared by diluting the stock solution in a buffer of the appropriate pH; the substrate was dissolved in the same buffer as the enzyme. In a control experiment, the ITC cell was filled with 0.024 µmol/L ACE (250 µL), and the ACE solution was titrated with 1.55 mmol/L HHL. The injection volume was […], and the time between two injections was 300 s during which the substrate was completely hydrolyzed. In the inhibition experiment, the ITC cell was filled with 0.024 µmol/L ACE and 0.13 µmol/L TPTQQS (250 µL), and the solution was titrated with 1.55 mmol/L HHL. The titration conditions were the same as those for the control experiment.
compound,measurement,setting,value
C[C@H](CS)C(=O)N1CCC[C@H]1C(=O)O [captopril],mode of ACE inhibition (literature),[1],Competitive inhibition
CCOC(=O)[C@H](CCc1ccccc1)N[C@@H](C)C(=O)N1CCC[C@H]1C(=O)O [enalapril],mode of ACE inhibition (literature),[1],Competitive inhibition
NCCCC[C@H](N[C@@H](CCc1ccccc1)C(=O)O)C(=O)N1CCC[C@H]1C(=O)O [lisinopril],mode of ACE inhibition (literature),[1],Competitive inhibition
TPTQQS [TPTQQS],mode of ACE inhibition (Lineweaver-Burk),[2],non-competitive inhibitor
same,inhibition rate,[3],72.55%
same,"affinity of HHL for ACE in the presence of inhibitor, ITC",[4],the same as that in the control experiment
same,mode of ACE inhibition by ITC,[4],non-competitive
same,"ACE-inhibitory activity (literature, in words)",[1]; isolated from hydrolyzed yeast protein,effective ACE-inhibitory peptide; also recorded: highly active
